Experimental data from patent publication US20080103162A1, “Antipruritics” (priority 2001, published 2008).

Experiments:
Type in all cases: in vivo
male ddY mice = experiment: compound 48/80-induced scratching behavior, intravenous administration (Test Example 1); settings: intravenously administered five minutes before compound 48/80 (50 μg/0.1 ml, subcutaneous, back), FIG. 1 to FIG. 3
[1] = tested on: nociceptine receptor defective mice; experiment: compound 48/80-induced scratching behavior in nociceptine receptor defective mice (Test Example 2); settings: intravenous, five minutes before compound 48/80, FIG. 4(b)
wild type mice = experiment: compound 48/80-induced scratching behavior in wild type mice (Test Example 2); settings: wild type mice (backcrossed with C57BL/6J); intravenous, five minutes before compound 48/80; FIG. 4(a)
male ICR mice [2] = experiment: spontaneous scratching behavior of mice with cutaneous barrier disruption (Test Example 4); settings: 0.1% in 100% ethanol, applied (100 μl) in vicinity of shaved portion, before vs after application, FIG. 6
Method: The rostral back portion of 5 weeks-old male ICR mice was shaved under etherization, and then cutaneous barrier was disrupted by carrying out a treatment of applying a mixed solution of acetone and ether (1:1) to the shaved portion and applying distilled water twice a day every day (10 days). […] The compound was applied (100 μl) in the vicinity of the shaved portion.

male ICR mice [3] = experiment: eye scratching behavior induced by instillation of serotonin (Test Example 3); settings: instillation of 10 μl of compound five minutes before 10 μl of 1% serotonin hydrochloride in right eye, FIG. 5
Method: After the instillation of 10 μl of 1% serotonin hydrochloride (hereinafter referred to as serotonin) in the right eye of 4-6 weeks-old male ICR mice, the number of scratching behavior in the vicinity of the eye induced by the instillation of serotonin for 10 minutes. […] Five minutes before the instillation of serotonin, the instillation of 10 μl of the compound was performed. In a control group, the instillation of distilled water was performed.

| SMILES | scratching behavior suppressing effect (number of scratching behavior for 30 minutes) (male ddY mice) | scratching behavior suppressing effect (number of scratching behavior for 30 minutes) [1] | scratching behavior suppressing effect (number of scratching behavior for 30 minutes) (wild type mice) | suppression of spontaneous scratching behavior induced by cutaneous barrier disruption (number of scratching behavior for 30 minutes) (male ICR mice [2]) | suppression of eye scratching behavior induced by instillation of serotonin (number of scratching behavior for 10 minutes) (male ICR mice [3]) |
| --- | --- | --- | --- | --- | --- |
| COc1ccc2nc(NC(=O)c3ccc(Cl)cc3)nc(N[C@H]3CCCC[C@H]3NC(=N)N)c2c1.Cl.Cl [compound A, (1R,2S)—N-amidino-2-[2-(4-chlorobenzoylamino)-6-methoxyquinazolin-4-yl]aminocyclohexylamine dihydrochloride] | strong scratching behavior suppressing effect | completely disappeared | strong scratching behavior suppressing effect |  |  |
| CCc1ccc(OCc2ccccc2C(=O)Nc2ccc3nc(C)cc(N)c3c2)cc1.Cl [compound C, N-(4-amino-2-methyl-6-quinolyl)-2-[(4-ethylphenoxy)methyl]benzamide hydrochloride, reference compound] | strong scratching behavior suppressing effect |  |  |  |  |
| Cc1ccc2nc(NC(=O)c3ccc(Cl)cc3)nc(N[C@H]3CCCC[C@H]3NC(=N)N)c2c1.Cl.Cl [compound D, (1R,2S)—N-amidino-2-{[2-(4-chlorobenzoylamino)-6-methylquinazolin-4-yl]amino}cyclohexylamine dihydrochloride] |  |  |  | strongly suppressed | strongly suppressed |
